Measurements taken from publication PMC9295122, “Sialic Acid Derivatives Inhibit SiaT Transporters and Delay Bacterial Growth” (ACS Chemical Biology, 2022).

Biological target: SiaT from S. aureus (Staphylococcus aureus, UniProt A0A0H2XJ46)
Test: [3H]Neu5Ac uptake in proteoliposomes, SaSiaT
Details: for type of inhibition: SaSiaT, Lineweaver–Burk plot
Protocol: To gain further insights into the molecular mechanisms, we investigated the direct effects of compounds 3e and 3f on the transport activity in proteoliposomes reconstituted with PmSiaT and SaSiaT. A kinetic analysis was performed by measuring the concentration-dependent uptake of [^3H]Neu5Ac in the presence of two different concentrations of the inhibitors 3f (Figure 5a,c) or 3e (Figure 5b,d).
Figure 5 Kinetic analysis of the inhibition of recombinant SiaT from P. mirabilis (A,B) and S. aureus (C,D) reconstituted in proteoliposomes and [^3H]Neu5Ac efflux in proteoliposomes (E,F). (a–d) Data were plotted according to Lineweaver–Burk as a reciprocal transport rate vs reciprocal Neu5Ac concentration. The transport rate was measured, in 5 min, by adding [^3H] Neu5Ac at the indicated concentrations to proteoliposomes containing 20 mM K^+-gluconate in the presence of valinomycin as described in the Supporting Information. [(A,B) P. mirabilis SiaT]; (A) compound 3f 0.25 μM (●) or 0.75 μM (□) was added in comparison to samples without inhibitor (○). (B) Compound 3e 12 μM (●) or 40 μM (□) was added in comparison to samples without an inhibitor (○). [(C,D) S. aureus SiaT]. (C) Compound 3f 80 μM (●) or 200 μM (□) was added in comparison to samples without an inhibitor (○). (D) Compound 3e 5 μM (●) or 12 μM (□) was added in comparison to samples without an inhibitor (○). Results are mean ± s.d. from four independent experiments (n = 4). […] Data are calculated as the percent of residual activity with respect to the control sample (efflux time zero). The results are the means ± s.d. of three independent experiments.
The purified SiaT from P. mirabilis and S. aureus was reconstituted by using the detergent removal procedure with the batchwise method previously pointed out.[16],[21] In brief, 2.5 μg or 5 μg of P. mirabilis and S. aureus SiaT, respectively, were mixed with 120 μL 10% C12E8, 100 μL of 10% egg yolk phospholipids (w/v, in the form of sonicated liposomes as previously described),[43] […]
For uptake experiments, 600 μL of proteoliposomes were loaded onto a Sephadex G-75 column (0.7 cm diameter × 15 cm height), pre-equilibrated with 20 mM Hepes Tris pH 7.0 with 40 mM sucrose to balance the internal osmolarity. […] For kinetic measurement, the initial transport rate was measured by stopping the reaction after 5 min, that is, within the initial linear range of [^3H]-Neu5Ac uptake into the proteoliposomes previously described. […] In both uptake and efflux experiments, the transport assay was terminated by loading each proteoliposome sample (100 μL) on a Sephadex G-75 column (0.6 cm diameter × 8 cm height) to remove the external radioactivity. Proteoliposomes were eluted with 1 mL of 50 mM NaCl and collected in a 4 mL of scintillation mixture, vortexed and counted.

Sequence of SiaT from S. aureus (A0A0H2XJ46 entry or part of it): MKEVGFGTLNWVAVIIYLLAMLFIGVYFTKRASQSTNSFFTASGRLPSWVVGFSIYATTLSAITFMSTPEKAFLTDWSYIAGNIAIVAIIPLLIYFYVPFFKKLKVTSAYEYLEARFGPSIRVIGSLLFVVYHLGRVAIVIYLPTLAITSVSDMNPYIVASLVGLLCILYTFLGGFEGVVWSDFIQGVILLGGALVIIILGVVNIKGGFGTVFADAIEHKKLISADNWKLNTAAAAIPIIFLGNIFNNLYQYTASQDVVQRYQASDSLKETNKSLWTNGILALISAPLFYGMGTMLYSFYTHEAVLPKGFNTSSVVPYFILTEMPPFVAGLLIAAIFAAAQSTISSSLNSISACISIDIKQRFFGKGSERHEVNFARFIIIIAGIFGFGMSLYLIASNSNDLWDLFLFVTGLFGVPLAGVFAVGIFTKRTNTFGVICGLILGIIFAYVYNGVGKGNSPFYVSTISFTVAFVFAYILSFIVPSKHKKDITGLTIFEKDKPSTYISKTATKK

SMILES | Ki [µM] | type of inhibition
CC(=O)NC1C(OCc2cc(F)cc(F)c2)CC(O)(C(=O)O)OC1C(O)C(O)CO (stereo not shown) [Compound 3e] | 2.8 ± 0.5 | competitive inhibitors
CC(=O)NC1C(OCc2cc(Br)cc(Br)c2)CC(O)(C(=O)O)OC1C(O)C(O)CO (stereo not shown) [Compound 3f] | 53.6 ± 11.1 | competitive inhibitors
